Experimental data taken from PMC10337138 (Acta Neuropathologica Communications, 2023).

Tests used:
Conditions in all cases: 1 mM ATP; inhibitor
PDHK2 = target: T1, PDHK2 (Homo sapiens, UniProt Q15119)
T1 construct: gene PDK2
Method: (§1) Kinase selectivity panel Kinome profiling was conducted by AssayQuant Technologies (Marlboro, MA) using Sox chromophore technology and Sox-based peptide substrates developed for human kinases in a 384-well format. Compounds were tested at 1 µM in the presence of 1 mM ATP.

PRKACG = PRKACG (Homo sapiens, UniProt P22612)
PRKACG, sequence (P22612 whole entry): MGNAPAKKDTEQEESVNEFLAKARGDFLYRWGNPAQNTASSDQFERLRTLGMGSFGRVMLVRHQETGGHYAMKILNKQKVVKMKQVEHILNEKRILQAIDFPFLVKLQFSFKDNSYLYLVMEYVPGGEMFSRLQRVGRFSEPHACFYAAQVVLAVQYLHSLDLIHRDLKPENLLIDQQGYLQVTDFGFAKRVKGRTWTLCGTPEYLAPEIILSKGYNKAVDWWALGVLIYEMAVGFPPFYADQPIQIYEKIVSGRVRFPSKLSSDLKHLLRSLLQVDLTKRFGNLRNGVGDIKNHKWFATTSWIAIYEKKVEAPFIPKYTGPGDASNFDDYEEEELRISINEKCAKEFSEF
Method: as §1

PAK1 = PAK1 (Homo sapiens, UniProt Q13153)
PAK1, sequence (Q13153 whole entry): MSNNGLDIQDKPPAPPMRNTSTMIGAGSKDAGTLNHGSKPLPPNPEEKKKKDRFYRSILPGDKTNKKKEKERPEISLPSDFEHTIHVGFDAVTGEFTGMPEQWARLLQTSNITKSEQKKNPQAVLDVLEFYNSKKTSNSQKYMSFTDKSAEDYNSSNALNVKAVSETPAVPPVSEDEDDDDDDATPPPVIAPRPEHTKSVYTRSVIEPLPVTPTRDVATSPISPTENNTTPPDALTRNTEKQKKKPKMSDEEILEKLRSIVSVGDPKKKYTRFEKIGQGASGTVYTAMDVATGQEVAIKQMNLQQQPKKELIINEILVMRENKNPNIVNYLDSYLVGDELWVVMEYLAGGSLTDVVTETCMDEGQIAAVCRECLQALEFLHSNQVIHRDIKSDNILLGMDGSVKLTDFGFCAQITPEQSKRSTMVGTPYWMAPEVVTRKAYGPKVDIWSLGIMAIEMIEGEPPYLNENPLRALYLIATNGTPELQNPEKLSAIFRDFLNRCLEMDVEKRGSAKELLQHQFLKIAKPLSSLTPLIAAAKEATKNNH
Method: as §1

MYO3B = MYO3B (Homo sapiens, UniProt Q8WXR4)
Method: as §1

MYLK/MLCK = MYLK/MLCK (Homo sapiens, UniProt Q15746)
Method: as §1

TEC = TEC (Homo sapiens, UniProt P42680)
Method: as §1

PTK6/BRK = PTK6/BRK (Homo sapiens, UniProt Q13882)
Method: as §1

RPS6KA6/RSK4 = RPS6KA6/RSK4 (Homo sapiens, UniProt Q9UK32)
Method: as §1

MAK = MAK (Homo sapiens, UniProt P20794)
MAK, sequence (P20794 whole entry): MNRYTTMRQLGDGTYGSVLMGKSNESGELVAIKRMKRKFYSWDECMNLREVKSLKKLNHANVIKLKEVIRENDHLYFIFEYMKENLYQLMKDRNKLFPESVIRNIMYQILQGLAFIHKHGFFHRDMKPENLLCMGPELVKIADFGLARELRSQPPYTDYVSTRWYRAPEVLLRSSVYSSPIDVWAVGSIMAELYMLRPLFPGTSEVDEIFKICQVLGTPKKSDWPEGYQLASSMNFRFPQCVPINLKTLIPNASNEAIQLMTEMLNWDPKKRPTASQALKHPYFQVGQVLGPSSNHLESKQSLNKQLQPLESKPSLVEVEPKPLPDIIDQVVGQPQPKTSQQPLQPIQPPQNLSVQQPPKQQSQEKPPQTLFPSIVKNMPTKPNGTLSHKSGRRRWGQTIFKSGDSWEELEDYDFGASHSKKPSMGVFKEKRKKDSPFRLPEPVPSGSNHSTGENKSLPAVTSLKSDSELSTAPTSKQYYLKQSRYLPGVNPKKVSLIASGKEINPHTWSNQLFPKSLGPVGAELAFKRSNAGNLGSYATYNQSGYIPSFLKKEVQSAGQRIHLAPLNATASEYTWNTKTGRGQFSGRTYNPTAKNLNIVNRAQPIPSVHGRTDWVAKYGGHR
Method: as §1

ULK2 = ULK2 (Homo sapiens, UniProt Q8IYT8)
ULK2, sequence (Q8IYT8 whole entry): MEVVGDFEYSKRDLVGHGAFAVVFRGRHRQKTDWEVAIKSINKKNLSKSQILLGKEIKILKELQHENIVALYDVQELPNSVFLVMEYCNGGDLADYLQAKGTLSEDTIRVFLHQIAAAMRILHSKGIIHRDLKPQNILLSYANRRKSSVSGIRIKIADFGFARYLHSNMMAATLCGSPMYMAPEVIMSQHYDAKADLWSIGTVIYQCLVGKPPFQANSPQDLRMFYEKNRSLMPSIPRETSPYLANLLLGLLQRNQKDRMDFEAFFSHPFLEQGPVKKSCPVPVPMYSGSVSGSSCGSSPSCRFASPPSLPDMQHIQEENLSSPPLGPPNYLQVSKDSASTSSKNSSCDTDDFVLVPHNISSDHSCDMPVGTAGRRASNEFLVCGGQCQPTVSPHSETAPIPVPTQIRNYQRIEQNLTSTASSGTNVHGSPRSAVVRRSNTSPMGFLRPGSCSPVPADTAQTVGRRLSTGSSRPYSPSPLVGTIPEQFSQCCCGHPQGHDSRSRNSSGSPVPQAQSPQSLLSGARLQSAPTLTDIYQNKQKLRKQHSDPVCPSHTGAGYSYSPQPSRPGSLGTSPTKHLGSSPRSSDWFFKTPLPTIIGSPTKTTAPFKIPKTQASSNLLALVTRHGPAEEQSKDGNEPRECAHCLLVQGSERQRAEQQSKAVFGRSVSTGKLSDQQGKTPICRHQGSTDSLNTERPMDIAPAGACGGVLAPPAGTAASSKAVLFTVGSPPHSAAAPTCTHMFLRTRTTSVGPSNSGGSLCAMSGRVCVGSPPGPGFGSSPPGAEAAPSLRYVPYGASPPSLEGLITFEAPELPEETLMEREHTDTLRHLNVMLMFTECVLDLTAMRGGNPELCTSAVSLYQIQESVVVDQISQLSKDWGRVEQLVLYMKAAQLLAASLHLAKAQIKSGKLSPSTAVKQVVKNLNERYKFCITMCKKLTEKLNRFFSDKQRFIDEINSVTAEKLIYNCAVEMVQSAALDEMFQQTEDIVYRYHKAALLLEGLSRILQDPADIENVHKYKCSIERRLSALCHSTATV
Method: as §1

TAOK3 = TAOK3 (Homo sapiens, UniProt Q9H2K8)
Method: as §1

NDR2 = target: T2, NDR2 (Homo sapiens, UniProt Q9Y2H1)
T2 construct: gene STK38L
T2 sequence (Q9Y2H1 whole entry): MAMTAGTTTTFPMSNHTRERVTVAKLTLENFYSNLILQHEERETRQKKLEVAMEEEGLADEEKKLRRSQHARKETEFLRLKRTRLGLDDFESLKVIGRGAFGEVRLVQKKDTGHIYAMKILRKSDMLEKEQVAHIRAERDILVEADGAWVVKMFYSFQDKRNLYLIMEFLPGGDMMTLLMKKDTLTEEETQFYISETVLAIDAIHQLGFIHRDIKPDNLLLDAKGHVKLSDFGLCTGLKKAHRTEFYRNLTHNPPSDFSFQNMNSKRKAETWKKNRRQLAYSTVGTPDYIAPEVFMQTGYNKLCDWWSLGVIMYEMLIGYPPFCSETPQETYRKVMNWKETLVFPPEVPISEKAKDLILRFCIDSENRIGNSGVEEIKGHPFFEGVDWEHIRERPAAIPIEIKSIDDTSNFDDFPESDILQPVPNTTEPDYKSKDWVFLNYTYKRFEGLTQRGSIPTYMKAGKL
Method: as §1

HASPIN = HASPIN (Homo sapiens, UniProt Q8TF76)
Method: as §1

CSNK2A2/CK2A2 = CSNK2A2/CK2A2 (Homo sapiens, UniProt P19784)
Method: as §1

MAPK13/P38D = MAPK13/P38D (Homo sapiens, UniProt O15264)
MAPK13/P38D, sequence (O15264 whole entry): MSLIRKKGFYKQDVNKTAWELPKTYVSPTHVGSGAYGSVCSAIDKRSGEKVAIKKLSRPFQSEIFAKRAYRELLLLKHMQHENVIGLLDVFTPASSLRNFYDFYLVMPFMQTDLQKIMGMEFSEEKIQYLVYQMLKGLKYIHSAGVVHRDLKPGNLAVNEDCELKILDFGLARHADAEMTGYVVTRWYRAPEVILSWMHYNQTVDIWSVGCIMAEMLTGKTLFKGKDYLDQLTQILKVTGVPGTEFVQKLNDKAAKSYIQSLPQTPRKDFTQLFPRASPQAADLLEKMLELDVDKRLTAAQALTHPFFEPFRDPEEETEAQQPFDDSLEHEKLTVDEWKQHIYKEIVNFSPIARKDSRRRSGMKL
Method: as §1

INSRR = INSRR (Homo sapiens, UniProt P14616)
Method: as §1

JAK1(JH1) = JAK1(JH1) (Homo sapiens, UniProt P23458)
Method: as §1

MAP3K10 = MAP3K10 (Homo sapiens, UniProt Q02779)
Method: as §1

MAPKAPK5/MK5 = MAPKAPK5/MK5 (Homo sapiens, UniProt Q8IW41)
Method: as §1

MAP3K2 = MAP3K2 (Homo sapiens, UniProt Q9Y2U5)
Method: as §1

MAPK10/JNK3 = MAPK10/JNK3 (Homo sapiens, UniProt P53779)
Method: as §1

SLK = SLK (Homo sapiens, UniProt Q9H2G2)
Method: as §1

NTRK3/TRKC = NTRK3/TRKC (Homo sapiens, UniProt Q16288)
Method: as §1

MAP3K9 = MAP3K9 (Homo sapiens, UniProt P80192)
Method: as §1

PDK1 = target: T3, PDK1 (Homo sapiens, UniProt O15530)
T3 construct: gene PDPK1
T3 sequence (O15530 whole entry): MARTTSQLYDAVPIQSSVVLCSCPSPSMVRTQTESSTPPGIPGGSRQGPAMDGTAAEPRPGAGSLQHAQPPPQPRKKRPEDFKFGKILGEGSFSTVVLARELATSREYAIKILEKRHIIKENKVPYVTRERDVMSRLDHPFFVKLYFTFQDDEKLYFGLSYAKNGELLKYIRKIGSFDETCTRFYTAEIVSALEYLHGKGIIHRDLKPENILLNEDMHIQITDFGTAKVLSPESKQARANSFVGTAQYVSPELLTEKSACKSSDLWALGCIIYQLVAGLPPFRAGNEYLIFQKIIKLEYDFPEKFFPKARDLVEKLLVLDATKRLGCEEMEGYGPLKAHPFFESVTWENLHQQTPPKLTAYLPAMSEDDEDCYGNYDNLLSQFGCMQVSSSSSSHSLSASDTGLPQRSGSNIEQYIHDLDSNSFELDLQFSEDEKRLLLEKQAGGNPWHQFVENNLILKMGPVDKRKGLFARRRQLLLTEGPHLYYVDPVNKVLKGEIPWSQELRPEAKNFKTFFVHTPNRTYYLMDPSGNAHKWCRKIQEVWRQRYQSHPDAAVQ
Method: as §1

STK11/LKB1 = STK11/LKB1 (Homo sapiens, UniProt Q15831)
Method: as §1

PLK3 = PLK3 (Homo sapiens, UniProt Q9H4B4)
Method: as §1

TSSK1 = target: T4, TSSK1 (Homo sapiens, UniProt Q9BXA7)
T4 construct: gene TSSK1B
T4 sequence (Q9BXA7 whole entry): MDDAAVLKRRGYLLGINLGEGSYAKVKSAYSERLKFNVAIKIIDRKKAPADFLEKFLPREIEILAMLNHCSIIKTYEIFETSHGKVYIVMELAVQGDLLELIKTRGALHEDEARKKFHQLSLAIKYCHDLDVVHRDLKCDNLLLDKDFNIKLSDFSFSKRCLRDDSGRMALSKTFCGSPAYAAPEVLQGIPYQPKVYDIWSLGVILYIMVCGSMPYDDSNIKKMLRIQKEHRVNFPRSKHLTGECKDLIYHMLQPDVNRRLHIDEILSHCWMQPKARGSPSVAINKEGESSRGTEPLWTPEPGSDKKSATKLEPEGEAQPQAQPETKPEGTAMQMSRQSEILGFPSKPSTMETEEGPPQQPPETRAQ
Method: as §1

TYK2(JH1JH2) = TYK2(JH1JH2) (Homo sapiens, UniProt P29597)
Method: as §1

GRK3 = GRK3 (Homo sapiens, UniProt P35626)
GRK3, sequence (P35626 whole entry): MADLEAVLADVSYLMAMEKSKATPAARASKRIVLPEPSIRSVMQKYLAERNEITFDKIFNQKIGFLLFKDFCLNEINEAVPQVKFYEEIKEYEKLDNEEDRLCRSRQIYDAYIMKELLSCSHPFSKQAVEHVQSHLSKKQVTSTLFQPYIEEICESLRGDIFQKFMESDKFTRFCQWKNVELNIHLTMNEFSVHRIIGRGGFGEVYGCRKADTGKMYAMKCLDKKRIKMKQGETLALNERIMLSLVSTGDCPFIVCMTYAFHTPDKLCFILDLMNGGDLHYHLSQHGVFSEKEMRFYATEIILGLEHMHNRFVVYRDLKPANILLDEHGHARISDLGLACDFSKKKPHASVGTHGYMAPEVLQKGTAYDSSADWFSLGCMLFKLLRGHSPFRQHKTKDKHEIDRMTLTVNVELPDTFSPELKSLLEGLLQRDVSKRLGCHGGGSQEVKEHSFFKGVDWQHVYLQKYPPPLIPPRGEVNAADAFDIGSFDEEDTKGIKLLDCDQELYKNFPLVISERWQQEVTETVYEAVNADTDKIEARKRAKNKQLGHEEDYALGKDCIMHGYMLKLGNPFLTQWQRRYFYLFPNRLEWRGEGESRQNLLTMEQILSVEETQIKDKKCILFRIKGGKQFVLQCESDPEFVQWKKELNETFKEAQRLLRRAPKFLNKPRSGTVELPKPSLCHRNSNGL
Method: as §1

NTRK2/TRKB = NTRK2/TRKB (Homo sapiens, UniProt Q16620)
Method: as §1

PKN3 = PKN3 (Homo sapiens, UniProt Q6P5Z2)
Method: as §1

BUB1 = BUB1 (Homo sapiens, UniProt O43683)
Method: as §1

DRAK1 = target: T5, DRAK1 (Homo sapiens, UniProt Q9UEE5)
T5 construct: gene STK17A
Method: as §1

CDK17 = CDK17 (Homo sapiens, UniProt Q00537)
Method: as §1

CAMKK2 = CAMKK2 (Homo sapiens, UniProt Q96RR4)
Method: as §1

ERBB2/HER2 = ERBB2/HER2 (Homo sapiens, UniProt P04626)
Method: as §1

AAK1 = AAK1 (Homo sapiens, UniProt Q2M2I8)
Method: as §1

SMILES: C=CC(=O)N1CCC[C@@H](n2nc(-c3ccc(Oc4ccccc4)cc3)c3c(N)ncnc32)C1 [Ibrutinib]
- 1 µM GBD00276 (ibrutinib), % inhibition (PDHK2): 7.038%
- 1 µM GBD00276 (ibrutinib), % inhibition (PRKACG): -12.39%
- 1 µM GBD00276 (ibrutinib), % inhibition (PAK1): 16.51%
- 1 µM GBD00276 (ibrutinib), % inhibition (MYO3B): -1.464%
- 1 µM GBD00276 (ibrutinib), % inhibition (MYLK/MLCK): -5.288%
- 1 µM GBD00276 (ibrutinib), % inhibition (TEC): 98.943%
- 1 µM GBD00276 (ibrutinib), % inhibition (PTK6/BRK): 98.64%
- 1 µM GBD00276 (ibrutinib), % inhibition (RPS6KA6/RSK4): 23.9%
- 1 µM GBD00276 (ibrutinib), % inhibition (MAK): 9.929%
- 1 µM GBD00276 (ibrutinib), % inhibition (ULK2): -2.604%
- 1 µM GBD00276 (ibrutinib), % inhibition (TAOK3): 9.158%
- 1 µM GBD00276 (ibrutinib), % inhibition (NDR2): 11.14%
- 1 µM GBD00276 (ibrutinib), % inhibition (HASPIN): 7.214%
- 1 µM GBD00276 (ibrutinib), % inhibition (CSNK2A2/CK2A2): -24.31%
- 1 µM GBD00276 (ibrutinib), % inhibition (MAPK13/P38D): 0.9944%
- 1 µM GBD00276 (ibrutinib), % inhibition (INSRR): 19.45%
- 1 µM GBD00276 (ibrutinib), % inhibition (JAK1(JH1)): 19.49%
- 1 µM GBD00276 (ibrutinib), % inhibition (MAP3K10): -7.966%
- 1 µM GBD00276 (ibrutinib), % inhibition (MAPKAPK5/MK5): 3.643%
- 1 µM GBD00276 (ibrutinib), % inhibition (MAP3K2): 6.175%
- 1 µM GBD00276 (ibrutinib), % inhibition (MAPK10/JNK3): -5.63%
- 1 µM GBD00276 (ibrutinib), % inhibition (SLK): -2.298%
- 1 µM GBD00276 (ibrutinib), % inhibition (NTRK3/TRKC): 9.419%
- 1 µM GBD00276 (ibrutinib), % inhibition (MAP3K9): -1.576%
- 1 µM GBD00276 (ibrutinib), % inhibition (PDK1): 7.444%
- 1 µM GBD00276 (ibrutinib), % inhibition (STK11/LKB1): -2.74%
- 1 µM GBD00276 (ibrutinib), % inhibition (PLK3): 16.45%
- 1 µM GBD00276 (ibrutinib), % inhibition (TSSK1): 5.621%
- 1 µM GBD00276 (ibrutinib), % inhibition (TYK2(JH1JH2)): -13.3%
- 1 µM GBD00276 (ibrutinib), % inhibition (GRK3): -19.22%
- 1 µM GBD00276 (ibrutinib), % inhibition (NTRK2/TRKB): 21.53%
- 1 µM GBD00276 (ibrutinib), % inhibition (PKN3): 29.61%
- 1 µM GBD00276 (ibrutinib), % inhibition (BUB1): 26.62%
- 1 µM GBD00276 (ibrutinib), % inhibition (DRAK1): 18.73%
- 1 µM GBD00276 (ibrutinib), % inhibition (CDK17): 5.795%
- 1 µM GBD00276 (ibrutinib), % inhibition (CAMKK2): 2.203%
- 1 µM GBD00276 (ibrutinib), % inhibition (ERBB2/HER2): 98.1%
- 1 µM GBD00276 (ibrutinib), % inhibition (AAK1): 6.339%
